In data set [1] the test system is mixture of rat gut bacteria. The experiment in a line: BBR-to-dhBBR conversion in rat gut bacteria mixture with nitroreductase inhibitor. It counts as cell-based. The conditions noted are these: 2-IBA in BBR incubation with mixture of rat gut bacteria, 12 h. As for the experimental part: (§1) BBR was incubated with nitroreductase in intestinal bacteria cultures. The reaction mixture consisted of BBR (50 μg/ml), an NADPH-regenerating system and nitroreductase (5 μg/ml) in a final volume of 1 ml under the protection of N2. After incubation for 0, 2, 4, 6 and 12 h at 37 °C, the reaction was terminated by the addition of 1 ml of ice-cold acetonitrile. The samples were then extracted with 1 ml of ethyl acetate after adding 1 ml of 0.5 M sodium hydroxide solution. The organic phase was evaporated to dryness under a nitrogen flow in a water bath at 40 °C. The residue was dissolved with 200 μl of the mobile phase for further analysis. 2-Iodosobenzoic acid (2-IBA), a specific inhibitor of nitroreductase, was used to verify the role of bacterial nitroreductase.

For data set [2], the target named is T1, nitroreductase (Escherichia coli, UniProt P38489).
T1 construct: purchased Sigma-Aldrich Co. (Shanghai, China); host or cells: Escherichia coli
Put plainly: Nitroreductase-mediated BBR reduction, cell-free incubation. It counts as biochemical. The settings on record: 2-IBA 100 μM, nitroreductase-containing cell-free incubation; read-out: inhibition rate of BBR-to-dhBBR conversion. As to the method:
as §1

Details of data set [3]: method as in PMID 21637946, PMID 12530470. The conditions noted are these: cited from earlier work.
Data set [4] has as its system 17 intestinal bacteria. The experiment in a line: Anti-bacterial test (MIC, broth microdilution). The conditions noted are these: 24 h. The class given is cell-based. As for the experimental part: Seventeen bacterial strains (see above) were used in the susceptibility test for BBR and dhBBR. The bacterial strains, which belong to different species of bacteria, were collected and identified as described above. The minimum inhibitory concentrations (MICs) of BBR and dhBBR after 24 h were determined through the broth microdilution method according to the CLSI guidelines. BBR and dhBBR were tested at a concentration range of 8 to 512 μg/ml. The MIC was defined as the lowest concentration of an agent that prevents turbidity. The experiment was repeated three times. All of the bacterial strains tested in this study (S. aureus ATCC 29213, E. faecalis ATCC 29212, E. coli ATCC 25922, S. aureus 08-43, S. epidermidis 12-12, E. faecium 13-01, E. faecalis 13-01, E. coli 06-05, K. pneumoniae 13-14, Ps. aeruginosa 13-10, A. baumannii 13-02, E. cloacae 13-12, and P. mirabilis 13-01) were facultative anaerobes, of which S. aureus ATCC 29213, E. faecalis ATCC 29212 and E. coli ATCC 25922 were standard strains from ATCC (USA) and served as quality controls. L. casei ATCC 334, L. acidophilus ATCC 4356, B. longum ATCC 15707, and B. breve ATCC 15700 were also tested in this anti-bacterial experiment. Ampicillin was used as the positive control.

Data set [5] in a line: Plasma pharmacokinetics after oral dhBBR or BBR in rats. The class given is in vivo, SD rats. The conditions noted are these: SD, rat, plasma, po, 200 mg/kg. As for the experimental part: The plasma (100 μl) was precipitated with 100 μl of acetonitrile after addition of 10 μl of the internal standard. BBR served as a control in the study. The plasma concentrations of BBR and dhBBR were determined using LC-MS/MS 8040 and LC-MS/MS 8050.

Data set [6] in a line: Absorption of BBR and dhBBR in Caco-2 cells. The class given is in vitro ADME. The settings on record: human. As for the experimental part: A Caco-2 cell assay was conducted using a method reported previously. […] To determine the rate of drug transport in the apical-to-basolateral direction, 200 μl of the compound working solution was added to the filter well (apical compartment), and 800 μl of HBSS was added to the receiver plate (basolateral compartment). Accordingly, to determine the rate of drug transport in the basolateral-to-apical direction, 800 μl of the compound working solution was added to each well of the receiver plate and 200 μl of HBSS was added to the filter well. The plates were incubated for 30 min at 37 °C with shaking at 150 rpm on a rotary shaker. At the end of the transport period, aliquots of 50 μl were removed directly from the apical and basolateral wells and transferred to wells of new plates. Four volumes of cold methanol containing internal standards were added into each well. The samples were centrifuged at 16,000 g for 15 min. Aliquots of 200 μl of the supernatant were used for the LC-MS/MS analysis.

Details of data set [7]: method as in PMID 24174332. The settings on record: patients; cited from earlier work.
Data set [8] can be described thus: Plasma concentration of BBR in KK-Ay mice treated or untreated with antibiotics. The conditions noted are these: for Cmax at 14 day: KK-Ay, mouse, plasma, oral, 200 mg/kg, BBR 200 mg/kg qd. The class given is in vivo. As for the experimental part:
Blood samples of the mice in Groups 1 and 2 were collected into a heparinized tube 30 min after the oral administration of BBR. The samples were taken at days 1, 3, 6, 10 and 14 of the BBR treatment course. The samples were centrifuged at 10,000 g for 5 min, and the plasma was collected and stored at −80 °C before analysis.

A short description of data set [9]: Plasma BBR in pseudo germ-free versus conventional rats after oral BBR. The conditions noted are these: male, SD, rat, 200 mg/kg, oral BBR 200 mg/kg. It counts as in vivo. As for the experimental part:
(§2) Male SD rats (180–200 g) were orally treated with cefadroxil (100 mg/kg), terramycin (300 mg/kg) and erythromycin (300 mg/kg) twice a day for 3 days, and pharmacokinetic examination was performed 2 days after final administration. The colon contents of the rats were collected on the first and third days after the final treatment with antibiotics, and the germ-free status was confirmed by culturing fecal samples aerobically on a nutrient agar culture medium. Fecal samples from non-antibiotic-exposed rats served as control samples.
Before oral administration of a single dose of BBR (200 mg/kg), the PGF rats were fasted overnight with free access to water. Blood samples were collected from the posterior orbital venous plexus into a heparinized tube at 0, 0.25, 0.5, 1, 1.5, 2, 3, 4, 6, 8, and 12 h post-BBR treatment and then subjected to the procedure described above. Fecal samples were also collected at 0, 6, 12, 24, 36 and 48 h post-BBR treatment. The samples were stored at −20 °C for further analysis.

A short description of data set [10]: Therapeutic effect of BBR on hyperglycemia and hyperlipidemia in KK-Ay mice with or without antibiotics. It counts as in vivo. The source says: KK-Ay mice with type 2 diabetes (female, 12 ± 1 weeks of age) were purchased from the Institute of Laboratory Animal Sciences, Chinese Academy of Medical Sciences (Beijing, China). […] Antibiotics at the doses described above were orally administered to KK-Ay mice for 3 days before the BBR treatment course, and the pseudo germ-free (PGF) state of the experimental mice was confirmed (see above). Four groups (n = 6 for each group) were used in the experiment: Group1, PGF KK-Ay mice orally treated with antibiotics (qd, at the dosage described above) plus BBR (200 mg/kg, qd) for 2 weeks; Group 2, untreated KK-Ay mice orally treated with BBR (200 mg/kg, qd) for 2 weeks; Group 3, PGF KK-Ay mice orally treated with antibiotics (qd, at a dosage identical to that for Group 1) for 2 weeks; Group 4, untreated KK-Ay mice. The antibiotics were administered in the morning and BBR was administered in the afternoon. All the animals were fed a high-fat diet. […] All of the mice were euthanized on day 14, and blood samples were taken to measure the fasting serum glucose (Glu), triglyceride (TG) and cholesterol (CHO) using Glu, TG and CHO reagent kits (Biosino Bio-Technology and Science INC, Beijing China), respectively. C57BL/6J mice were used as a wild-type reference. The body weights of the mice before, during and after treatments were recorded for 14 days.

Data set [11] can be described thus: 72-h cumulative fecal excretion of BBR and dhBBR in pseudo germ-free (PGF) and conventional rats. The class given is in vivo, SD rats. The conditions noted are these: oral BBR 200 mg/kg. As for the experimental part: as §2, with “samples. Before oral administration of a single dose of BBR (200 mg/kg), the PGF rats were fasted overnight with free access to water. […] The samples were stored at −20 °C for further analysis.” for “samples.”

A short description of data set [12]: Effect of ions on the dhBBR-to-BBR transformation. The settings on record: EDTA-2Na 10 mM. As to the method: dhBBR was added into the reaction solution containing FeCl3, CuCl2, ZnCl2, and NaCl (at concentrations of 0.033, 0.333 and 3.33 mM, respectively). Ethylenediaminetetraacetic acid disodium salt (EDTA-2Na, 10 mM), a chelating agent for metal ions, was used in the test.

Data set [13] in a line: Effect of heat inactivation and vitamin C on dhBBR-to-BBR transformation in rat small intestine homogenate. It counts as in vitro ADME. The conditions noted are these: added to the reaction solution. As to the method: The rats (n = 3) were sacrificed to obtain fresh small intestine homogenate. The homogenate was then boiled for 2 min to inactivate all of the enzymes. After pre-incubation at 37 °C for 2 min, 5 μl of dhBBR (10 mM, dissolved in DMSO) was added into the inactivated homogenate, and fresh homogenate (active one) was used as a reference. The sample was mixed thoroughly and centrifuged at 16,000 g for 5 min. The supernatant was transferred into new tubes, treated with 500 μl of acetonitrile, and then centrifuged. Twenty-microliter aliquots were used for the HPLC analysis.
To examine the oxidative reaction, 100 μl of vitamin C was pre-incubated with the inactivated homogenate; the final concentrations of vitamin C were 95, 9.5 and 0.95 mM. The superoxide anion in the sample was detected with an O2^− ELISA kit (Beijing Biolab Co., Ltd., Beijing, China; lot: 201404) following the manufacturer’s instructions.

On the set-up of data set [14]: method as in PMID 18285556. The settings on record: cited from earlier work.

Like-named read-outs stand apart in the source and are kept apart here.

T1 sequence (P38489 whole entry): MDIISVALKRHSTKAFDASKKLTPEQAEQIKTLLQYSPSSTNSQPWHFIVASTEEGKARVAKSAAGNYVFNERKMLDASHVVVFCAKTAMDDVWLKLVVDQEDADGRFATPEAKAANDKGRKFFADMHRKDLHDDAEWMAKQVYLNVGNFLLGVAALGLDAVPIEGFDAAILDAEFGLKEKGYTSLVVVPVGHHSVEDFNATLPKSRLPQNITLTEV

With `O=Ic1ccccc1C(=O)O` [2-IBA, 2-iodosobenzoic acid], in data set [1], the “inhibition of dhBBR production” value was found to be 78.7%. Besides, in [2], the inhibition at 100 µM was 88.3%.

Consider `COc1ccc2cc3[n+](cc2c1OC)CCc1cc2c(cc1-3)OCO2` [BBR, berberine], for which the water solubility result in data set [3] is reported as “poor water solubility”. The MIC is > 128 µg/mL in data set [4] (span over 17 strains, read-out: minimal inhibitory concentration (MIC) on the 17 bacteria) and ≥ 512 µg/mL in [4] (read-out: MIC, most of the 17 tested strains). The AUC(0-t) is 54.6 ng·h/mL in data set [5] (oral BBR 200 mg/kg, Fig. 3c curve 2, read-out: AUC(0-t) of BBR in plasma); 262 ng·h/mL in data set [5] (oral dhBBR 200 mg/kg, read-out: AUC(0-t) of BBR in blood); 70.9 ng·h/mL in [9] (conventional SD rat); 11.9 ng·h/mL in [9] (pseudo germ-free rat). The maximum concentration (Cmax) turned out to be 16.1 ng/mL in data set [5] (oral BBR 200 mg/kg, Fig. 3c curve 2, read-out: Cmax of BBR in plasma); 52.5 ng/mL in data set [5] (oral dhBBR 200 mg/kg, read-out: Cmax of BBR in blood); 26 ng/mL in [9] (conventional SD rat); 6.92 ng/mL in data set [9] (pseudo germ-free rat). In addition, in data set [6] (Caco-2, pH 7.4, read-out: efflux ratio (ER)), the efflux ratio at 30 min, 5 μM stood at 32.4. Moreover, the apical-to-basolateral permeability (Papp A→B) at 30 min, 5 μM in data set [6] (pH 7.4, Caco-2, 5 μM, 30 min) came out at 0.38 ×10⁻⁶ cm/s. The “reduction of LDL-c level” value in [7] is 10–25%. Further, the “reduction of fasting blood glucose level” value in [7] is reported as 21–36%. In addition, the “reduction of triglyceride level” value in data set [7] is recorded as 20–35%. Besides, the Cmax at 14 day in data set [8] (day 14, mice treated with antibiotics (Group 1)) was 28.3 ± 3.41 ng/mL; in data set [8] (day 14, mice without antibiotics (Group 2)) it was 178 ± 57.6 ng/mL. Further, in data set [8] (day 14), the “Folds of Cmax [BBR / (BBR+Antibiotics)]” value is on record as 6.4 fold. Moreover, the “Folds of Cmax, Group 2 over Group 1” value in data set [8] (throughout days 1, 3, 6, 10 and 14) is listed as 3.5-6.5 fold. For the same compound, in data set [10] (Group 1 vs Group 2, day 14), the “reduction of therapeutic efficacy of BBR on cholesterol by antibiotics” value is 44%. The “reduction of therapeutic efficacy of BBR on triglyceride by antibiotics” value in data set [10] (Group 1 vs Group 2, day 14) came to 53%. In [10] (antibiotics before and during BBR (Group 1) vs BBR only (Group 2), day 14), the “reduction of therapeutic efficacy of BBR on fasting blood glucose by antibiotics” value was 42%. The “total BBR in feces over 72 h, % of the administered amount” value in data set [11] (PGF rats) came to 27.81%; in data set [11] (untreated (conventional) rats) it was 18.67%.

For `O=C([O-])CN(CCN(CC(=O)O)CC(=O)O)CC(=O)[O-].[Na+].[Na+]` [EDTA-2Na, Ethylenediaminetetraacetic acid disodium salt], the “reduction of dhBBR-to-BBR oxidization” value in data set [12] is listed as 5%.

`O=C1O[C@H]([C@@H](O)CO)C(O)=C1O` [vitamin C]: the “effect on dhBBR-to-BBR reversion” value in data set [13] is “almost completely terminated”.

Regarding dihydroberberine sulfate, in data set [14], the “absorption in the intestine compared with BBR” value is on record as “better absorption”.

The values are drawn from article PMC4502414, “Transforming berberine into its intestine-absorbable form by the gut microbiota” (Scientific Reports, 2015).
